Consider seven compounds from paper PMC12561670, “Isolation of Dual-Active Drugs with Anticancer and Antibacterial Activities That Target Both Tubulin and FtsZ” (Antibiotics, 2025).

In brackets after ≈: the same amount, converted by molar mass. Counter-ions that a name gives are not always drawn. Like-named read-outs stand apart in the source and are kept apart here.

The test system of one series is E. coli (ATCC 8739). Kind of series: MIC, broth microdilution. The following applies: Escherichia coli, read-out: MIC E. coli (ATCC 8739). Type of series: cell-based.
The subject of another series is P. aeruginosa (DSM 939). Kind of series: MIC, broth microdilution. As to conditions: Pseudomonas aeruginosa, read-out: MIC P. aeruginosa (DSM 939). The series is classed as cell-based. On the technique in general: Broth dilution looks for growth in wells or tubes with falling amounts of substance.
The subject of the next series is E. coli. Kind of series: In vivo antibacterial activity, mouse peritoneal infection. Further details: species or system CD-1 male mice. The text has this: SPF grade CD-1 male mice weighing 30 ± 3 g were purchased from Shanghai Slake Experimental Animal Co., Ltd. (Shanghai, China). […] Immediately following this, the mice were intraperitoneally injected with the test compounds. Each experimental group consisted of five mice, with each compound being tested at two distinct concentration gradients (determined based on the minimum inhibitory concentration, MIC). A separate group received physiological saline as a negative control. The subsequent assessment focused on evaluating the therapeutic potential of these drugs against bacterial infections. On the first and third days post-administration, 2 mL of sterile physiological saline was injected into the peritoneal cavity of each mouse. After a gentle two-minute dilution under sterile conditions, the abdominal fluid was extracted for bacterial enumeration using the plate counting method. Furthermore, the clinical manifestations of each mouse group, encompassing mental status, appetite, and other relevant parameters, were meticulously observed over a seven-day period. On the seventh day, the mice were euthanized, and a thorough macroscopic examination was conducted to assess the pathological changes in various vital organs.

The target of another series is T1, S. aureus FtsZ (Staphylococcus aureus, UniProt P0A031).
T1 construct: His tag; made in house; host or cells: E. coli BL21(DE3)
T1 sequence (P0A031 1-390): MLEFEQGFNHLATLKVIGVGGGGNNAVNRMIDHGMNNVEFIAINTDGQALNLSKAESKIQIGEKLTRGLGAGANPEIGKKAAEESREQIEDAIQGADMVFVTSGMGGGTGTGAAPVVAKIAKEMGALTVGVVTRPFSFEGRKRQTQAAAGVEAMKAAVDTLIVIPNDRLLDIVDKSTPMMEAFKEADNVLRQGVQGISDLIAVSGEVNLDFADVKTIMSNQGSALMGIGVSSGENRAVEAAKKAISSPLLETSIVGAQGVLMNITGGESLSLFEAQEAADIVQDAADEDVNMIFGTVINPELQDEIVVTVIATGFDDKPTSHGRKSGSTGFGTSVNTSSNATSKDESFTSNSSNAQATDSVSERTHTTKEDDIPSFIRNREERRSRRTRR
Kind of series: FtsZ polymerization assay (A340). Type of series: biochemical. As to conditions: 50 μM compound, 5 µM FtsZ, 4 mM GTP, vs DMSO. The protocol: The effect of compounds on S. aureus FtsZ polymerization was monitored by employing a microtiter plate-based spectrophotometric assay method, and the reactions were conducted in flat-bottomed 96-well microtiter plates. The degree of FtsZ polymerization was reflected by the corresponding changes in absorbance at 340 nm (A340). […] The polymerization reaction began immediately once 4 mM GTP was added, and then the polymerization was continuously monitored at 25 °C for 60 min by measuring A340 in BioTek-Synergy4 multifunctional enzyme-linked immunosorbent assay (ELISA) reader.

The test system of another series is S. aureus (ATCC 6538). Put plainly: MIC, broth microdilution. The series is classed as cell-based. As to conditions: Staphylococcus aureus, read-out: MIC S. aureus (ATCC 6538).
The next series has as its system B. subtilis (CICC 21164). Put plainly: MIC, broth microdilution. Type of series: cell-based. As to conditions: Bacillus subtilis, 18 h, read-out: MIC B. subtilis (CICC 21164). On the procedure: MIC assays were carried out by employing the broth microdilution method in accordance with Clinical and Laboratory Standards Institute (CLSI) guidelines. E. coli BNCC337004, S. aureus BNCC336423, P. aeruginosa BNCC337099, and B. subtilis CICC 21164 were applied for the MIC detection. Mueller–Hinton broth (MHB) was used in bacterial culture, and log-phase bacteria were diluted into a 0.5 McFarland Standard suspension, which was then diluted 1000 times again. Subsequently, 100 μL of the obtained bacterial suspension was placed into each well of 96-well microtiter plates, along with 2-fold serial dilutions of compounds (512, 256, 128, 64, 32, 16, 8, 4, 2, 1, 0.5, 0 μM). The microtiter plates were incubated aerobically for 18 h at 37 °C. The MIC was defined as the lowest drug concentration at which no visible turbidity was observed. All experiments are conducted in three parallel.

The next series concerns the target T2, FtsZ (Staphylococcus aureus, UniProt P0A031).
T2 construct: His tag; made in house; host or cells: E. coli BL21(DE3)
T2 sequence (P0A031 1-390): T1 sequence (P0A031 1-390)
Put plainly: Sedimentation assay of FtsZ polymerization. The series is classed as biochemical. As to conditions: 50 μM compound, 5 μM FtsZ, 37 °C 30 min. On the procedure:
Sedimentation assay was also conducted for the influence of compounds on FtsZ polymerization. FtsZ (5 μM) was polymerized in a buffer containing 25 mM Pipes buffer (pH 6.8) and 3 mM MgSO4 in the […] of DMSO or compounds (50 μM). After the addition of 4 mM GTP, the sample was instantly placed at 37 °C for 30 min. Then, the polymers were collected by centrifuging for 30 min at 25 °C. The protein concentration in the supernatant was determined using the Bradford quantification method, with bovine serum albumin (BSA) as the standard. The experiment was performed in triplicate, and the average absorbance is shown.

A further series deals with B. subtilis. Put plainly: Phase-contrast microscopy, cell division inhibition. The series is classed as cell-based. As to conditions: 64 μM, 4 h. The protocol: Cell Division Inhibitory Screening Assay Cell division inhibitory activity of compounds was conducted as below. […] Afterwards, 1 mL of the sample was centrifuged at 15,000× g for 3 min at room temperature, and the bacterial pellets were washed with 1 mL of PBS before re-centrifugation. The final bacterial pellets obtained were resuspended in 5 mL PBS. 20 μL of bacterial suspension was transferred to slides for microscopy. Cell morphology was estimated by using the phase-contrast method of Olympus IX71 microscopy (Olympus Corporation, Tokyo, Japan) with 400× magnification.

The subject of the next series is S. aureus BNCC336423. Put plainly: Time–killing curve. Type of series: cell-based. The following applies: S. aureus BNCC336423, concentrations of 4× the MIC or greater. The protocol:
S. aureus BNCC336423 was employed for the time–killing curve study. […] Meanwhile, DMSO with an equivalent volume was added to the vehicle control tube. The cultures were then subjected to shaking incubation at 37 °C. Subsequently, cultures were taken out at predetermined time intervals (0, 1, 2, 4, 6, 8, and 24 h), centrifuged at 16,000×g for 3 min, and diluted to an appropriate multiple. These diluted samples were then plated onto Tryptic Soy Agar (TSA) plates for enumeration. Following a 24 h incubation period at 37 °C, colonies on the TSA plates were counted for the CFU/mL, thereby providing insights into the time-dependent bactericidal activity of the tested compounds.

A further series has as its system bovine brain tubulin. Put plainly: Inhibition of tubulin polymerization. The series is classed as biochemical. The following applies: 10 μM bovine brain tubulin, 20 min; read-out: IC50 ± SD Tubulin (inhibition of tubulin polymerization). The protocol: Compounds with a certain concentration were pre-incubated with 10 μM bovine brain tubulin in glutamate buffer at 30 °C, and then cooled to 0 °C. The absorbance of 350 nm was immediately measured at 30 °C, as soon as the addition of 0.4 mM GTP. The absorbance would be detected continuously for 20 min. The IC50 was defined as the compound concentration that inhibited tubulin polymerization by 50% during 20 min.

A further series can be described thus: Cytotoxicity, CCK8. Type of series: cell-based. As to conditions: human. On the procedure: The absorbance of 450 nm was measured in an ELISA reader (BioTek-Synergy 4, USA). Then, cell viability was calculated, and the corresponding images were drawn with GraphPad Prism 9.
[1] abbreviates: ATCC8739, broth microdilution, 18 h, 37 °C.
The mark [2] stands for this setting: DSM939, broth microdilution, 18 h, 37 °C.
Setting [3] is: ATCC6538, broth microdilution, 18 h, 37 °C.
The mark [4] stands for this setting: 293T cells (renal epithelial cells), read-out: cell viability HT293 (293T).
[5] abbreviates: LO2 cells (normal hepatic cells), read-out: cell viability LO2.

Usually MIC stands for the lowest concentration found to suppress growth. For `COc1ccc2cc3[n+](cc2c1OC)CCc1cc2c(cc1-3)OCO2` [Compound 82, Berberine], the MIC in the series on E. coli (ATCC 8739) (setting [1]) is 64 µM; in the series on P. aeruginosa (DSM 939) (setting [2]), 8 µM; in the series with S. aureus (ATCC 6538) (setting [3]), 4 µM; with B. subtilis (CICC 21164) (broth microdilution, 37 °C), 64 µM. Further, the “bacterial count of peritoneal fluid” value in the series on E. coli (mice i.p. E. coli, i.p. compound, days 1 and 3) is reported as “substantially mitigated”. Also, in the series with E. coli (seven-day observation), the “clinical presentation of infected mice” value is on record as “exhibited vitality, maintained a healthy appetite”. Besides, the “effect on FtsZ polymerization (A340)” value at S. aureus FtsZ is listed as “robust inhibitory activity against FtsZ polymerization”. Also, at FtsZ, the “effect on FtsZ sedimentation (polymerization amount)” value (“effect on FtsZ sedimentation” for short) is listed as “varying degrees of inhibition on FtsZ polymerization”. Moreover, the “cell morphology of B. subtilis (elongation)” value in the series on B. subtilis is “varying degrees of elongation”.

With `CN(C)c1ccc2nc3ccc(=[N+](C)C)cc-3sc2c1` [Compound 71, Methylene Blue], in the series on S. aureus BNCC336423, the “logs of kill in time–kill” value turned out to be 3 logs. The MIC in the series with E. coli (ATCC 8739) (setting [1]) was determined as 64 µM; in the series with P. aeruginosa (DSM 939) (setting [2]), 64 µM; in the series on S. aureus (ATCC 6538) (setting [3]), 2 µM; in the series on B. subtilis (CICC 21164) (broth microdilution, 37 °C), 32 µM. Also, at FtsZ, the “effect on FtsZ sedimentation” value is “negligible effects”.

Usually IC50 stands for the concentration at which inhibition is half-maximal. The term viability denotes the share of living cells, or the viability signal relative to a control. As to `CN(C)c1ccc2c(c1)Sc1cc(N(C)C)ccc1N2` [Compound 33, Leucomethylene blue mesylate], in the series on bovine brain tubulin, the IC50 worked out at 74.46 ± 0.25 µM. The viability at 12 h, 100 µM is 80% in the series “Cytotoxicity, CCK8” (setting [4]) and 65% in the series “Cytotoxicity, CCK8” (setting [5]). Besides, in the series on S. aureus BNCC336423, the “logs of kill in time–kill” value is 3 logs. Besides, the MIC turned out to be 32 µM in the series on E. coli (ATCC 8739) (setting [1]); 2 µM in the series with P. aeruginosa (DSM 939) (setting [2]); 4 µM with S. aureus (ATCC 6538) (setting [3]); 64 µM in the series on B. subtilis (CICC 21164) (broth microdilution, 37 °C). At S. aureus FtsZ, the “effect on FtsZ polymerization (A340)” value is on record as “minimal impact on the dynamics of FtsZ polymerization”. In addition, the “effect on FtsZ sedimentation” value at FtsZ was “varying degrees of inhibition on FtsZ polymerization”.

On to `CC[C@]1(O)C[C@H]2CN(CCc3c([nH]c4ccccc34)[C@@](C(=O)OC)(c3cc4c(cc3OC)N(C=O)[C@H]3[C@@](O)(C(=O)OC)[C@H](OC(C)=O)[C@]5(CC)C=CCN6CC[C@]43[C@@H]65)C2)C1` [Compound 6, Vincristine sulfate], for which the MIC in the series with E. coli (ATCC 8739) (setting [1]) came to 64 µM; in the series on P. aeruginosa (DSM 939) (setting [2]) it was 32 µM; in the series with S. aureus (ATCC 6538) (setting [3]), 8 µM; with B. subtilis (CICC 21164) (broth microdilution, 37 °C), 16 µM. Also, on FtsZ, the “effect on FtsZ sedimentation” value was “negligible effects”.

Consider `C[C@]12CC[C@@H]3c4ccc(OC(=O)N(CCCl)CCCl)cc4CC[C@H]3[C@@H]1CC[C@@H]2O` [Compound 56, Estramustine], for which the IC50 in the series with bovine brain tubulin was 38.66 ± 0.28 µM. For the same compound, the viability at 12 h, 100 µM turned out to be 98% in “Cytotoxicity, CCK8” (read-out: cell viability HT293 (293T)) and 99% in the series “Cytotoxicity, CCK8” (read-out: cell viability LO2). Moreover, the MIC is 128 µM (≈ 56.4 µg/mL) in the series with E. coli (ATCC 8739) (ATCC8739, 18 h); 32 µM (≈ 14.1 µg/mL) in the series with P. aeruginosa (DSM 939) (DSM939, 18 h); 128 µM (≈ 56.4 µg/mL) in the series with S. aureus (ATCC 6538) (ATCC6538, 18 h); 64 µM (≈ 28.2 µg/mL) in the series on B. subtilis (CICC 21164). Also, the “effect on FtsZ polymerization (A340)” value at S. aureus FtsZ is “minimal impact on the dynamics of FtsZ polymerization”. Also, the “effect on FtsZ sedimentation” value at FtsZ is “negligible effects”.

In the case of `CC(C)CNc1ccnc(NCc2csc(-c3ccccc3)n2)n1` [Compound 60, KHS 101], the IC50 in the series on bovine brain tubulin came out at 5.62 ± 0.12 µM. Moreover, the viability at 12 h, 100 µM in the series “Cytotoxicity, CCK8” (setting [4]) is 89%; in “Cytotoxicity, CCK8” (setting [5]), 90%. The MIC turned out to be 16 µM (≈ 5.43 µg/mL) in the series on E. coli (ATCC 8739) (setting [1]); 8 µM (≈ 2.72 µg/mL) in the series with P. aeruginosa (DSM 939) (setting [2]); 8 µM (≈ 2.72 µg/mL) in the series on S. aureus (ATCC 6538) (setting [3]); 64 µM (≈ 21.7 µg/mL) in the series on B. subtilis (CICC 21164) (broth microdilution, 37 °C). Moreover, the “effect on FtsZ polymerization (A340)” value on S. aureus FtsZ is listed as “apparent inhibitory tendencies towards FtsZ polymerization”. Moreover, the “effect on FtsZ sedimentation” value on FtsZ is given as “varying degrees of inhibition on FtsZ polymerization”.

As for `COc1ccc(/C=C\c2cc(OC)c(OC)c(OC)c2)cc1O` [CA-4, Combretastatin A4], in the series with bovine brain tubulin, the IC50 turned out to be […].
